Results from the SangsterLogP compilation.

Test: method code SF-AS, from DOI: 10.1139/v66-154

Structure (SMILES)	logP
O=C1C=C(Cl)C(=O)c2ccccc21	2.15
COc1cc(C=C[N+](=O)[O-])ccc1O	1.88
C/C(=C\c1ccccc1)[N+](=O)[O-]	2.52
O=C1C(Cl)=C(Nc2ccccc2)C(=O)c2ccccc21	4.22
COC1=CC(=O)c2ccccc2C1=O	1.35
O=[N+]([O-])/C=C/c1ccc([N+](=O)[O-])cc1	1.89
O=[N+]([O-])/C=C/c1ccccc1Cl	2.85
CCCCSC1=CC(=O)c2ccccc2C1=O	3.29
CN(C)c1ccc(/C=C/[N+](=O)[O-])cc1	2.67
CC(=O)NC1=CC(=O)c2ccccc2C1=O	1.29
O=C1C=C(S(=O)(=O)c2ccccc2)C(=O)c2ccccc21	2.14
COc1cccc(/C=C/[N+](=O)[O-])c1	2.3
O=[N+]([O-])C=Cc1ccccc1	2.11
O=C1C=C(Nc2ccccc2)C(=O)c2ccccc21	2.84
O=C1C(Nc2ccccc2)=C(S(=O)(=O)c2ccccc2)C(=O)c2ccccc21	3.38
Cc1ccc2c(c1)C(=O)C=CC2=O	2.1

Structure (SMILES)	logP
CCCCSC1=C(NC(C)=O)C(=O)c2ccccc2C1=O	2.07
CCCCNC1=C(Cl)C(=O)c2ccccc2C1=O	4.26
O=C1C=CC(=O)c2ccccc21	1.71
O=[N+]([O-])/C=C/c1ccc(Cl)cc1	2.44
O=C1C=C(c2ccccc2)C(=O)c2ccccc21	4.4
Cc1cc2c(cc1C)C(=O)C=CC2=O	2.49
O=[N+]([O-])/C=C/c1ccc(O)cc1	2.12
COC1=C(C)C(=O)c2ccccc2C1=O	2.14
O=[N+]([O-])C=Cc1cc([N+](=O)[O-])ccc1Cl	2.23
O=[N+]([O-])C=Cc1cccc(O)c1	2.07
CC(=O)NC1=C(Nc2ccccc2)C(=O)c2ccccc2C1=O	1.73
O=[N+]([O-])/C=C/c1cccc(Cl)c1	2.57
CC1=C(O)c2ccccc2C(=O)C1=O	1.2
O=[N+]([O-])/C=C/c1cccc([N+](=O)[O-])c1	1.82
O=[N+]([O-])/C=C/c1ccccc1[N+](=O)[O-]	1.8
CCCCNC1=CC(=O)c2ccccc2C1=O	3.11
